# Assay: gradient 5% acetonitrile 3 min, to 50% in 2 min, to 85% in 15 min, held 3 min, 100 µL/min
# Details: column: Zorbax Extend-C18 2.1 x 50 mm; eluents: water / acetonitrile, 0.1% formic acid
# How it was run: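 The system's dead and dwell volumes were 40 μL and 900 μL, with a Zorbax Extend-C18 column (2.1 × 50 mm, 1.8 μm) run at 100 μL/min in water and acetonitrile containing 0.1% formic acid each. Pure standards were analyzed in mixtures of ~100 molecules by HPLC–quadrupole time-of-flight mass spectrometry in positive and negative ionization mode. Retention time was assigned from computationally picked, manually inspected adduct peaks.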
row,SMILES,RP-LC retention time [s]
1,Cc1ccc(C)c(NC(=O)C2CCCN(c3ncnc4c3nc3n4CCCCC3)C2)c1 (centres undefined),793
2,COc1cc2c(cc1OC)CN(C(=O)C1CC(=O)N(c3n[nH]c4cccc(F)c34)C1)CC2 (centres undefined),689
3,Cc1oc(C2CCN(S(=O)(=O)c3cccs3)CC2)nc1C(=O)N1CCCC1,856
4,Cc1ccc(CNC(=O)N2CCC(OC3CCN(S(C)(=O)=O)CC3)CC2)cc1,760
5,CCOC(=O)CCNC(=O)N1[C@H]2CC[C@@H]1c1cnc(-c3ccc(F)cc3)nc1C2,797
6,C=CCN1C(=O)COc2ccc(-c3nc(NC(=O)C(C)(C)C)sc3C)cc21,1010
7,CC(=O)Nc1ccc(OCc2cc(C(=O)NC3CCC(C)CC3)no2)cc1 (centres undefined),860
8,COCCN1C(=O)[C@H]2CN(Cc3cccc(Cl)c3F)C[C@H]2C1=O,685
9,CN1c2cc(F)ccc2C(=O)NC12CCN(C(=O)c1ccc(F)cc1)CC2,744
10,COCc1nc(CCNC(=O)C2CCCO2)no1 (centres undefined),593
11,COC(=O)c1cc(C2CC2)nc2c1c(=O)n(Cc1ccccc1F)c(=O)n2C,1080
12,Cc1ccc2c(c1)N(CCCC(=O)NCCCN1CC(C)CC(C)C1)C(=O)CO2 (centres undefined),674
13,CC1CCN(C(=O)C2=NN(Cc3cccc(F)c3)c3ccccc3S2(=O)=O)CC1,1010
14,Cc1ccc(CNC(=O)C2(C)CN(S(C)(=O)=O)CC(=O)N2c2cc(Cl)ccc2C)cc1 (centres undefined),829
15,Cn1ccnc1C(=O)N1CC(n2cc(C(=O)N3CCOCC3)nn2)C1,581
16,CC(=O)Oc1cc2c(s1)CCN(C(C(=O)C1CC1)c1ccccc1F)C2 (centres undefined),739
17,COc1cccc(NC(=O)Cn2nc3c(N(C)C4CCCCC4)nccn3c2=O)c1,745
18,CC(Oc1ccc(C(C)(C)C)cc1)C(=O)N(Cc1ccco1)C1CCS(=O)(=O)C1 (centres undefined),1050
19,CCCNC(=O)C1CCN(c2nc3ccc(-c4ccccc4F)nc3s2)CC1,951

row,SMILES,RP-LC retention time [s]
1,CN1CCN(C(=O)Nc2ccc([N+](=O)[O-])cc2)CC1,634
2,O=C(Cc1ccccc1)NCCSc1c[nH]c2ccccc12,790
3,O=S(=O)(c1ccc2c(c1)CCC2)N1CCCn2nc(-c3cccs3)cc2C1,1060
4,O=C(NCc1ccc2c(c1)OCO2)C1CCN(C(=O)C2Sc3ccccc3NC2=O)CC1 (centres undefined),703
5,CCc1ccccc1S(=O)(=O)N1CCC(C(=O)NCCc2csc(-c3cccs3)n2)CC1,981
6,COc1cc(NC(=O)N2CC3CCCN3c3ccccc32)cc(OC)c1OC (centres undefined),702
7,O=C(Nc1ccc(-c2nnc3n2CCCC3)cc1)C1CCC1,622
8,CCOc1ccc(Nc2c(C(=O)N3CCCCC3CC)cnc3nc(C)ccc23)cc1 (centres undefined),683
9,COc1ccc(OC)c(CNC(=O)C2CCN(S(=O)(=O)c3ccc4c(c3)NC(=O)CO4)CC2)c1,721
10,Cc1cc(=O)n(CC(=O)N2CCCc3ccccc32)c(N2CCOCC2)n1,687
11,CSc1ccc(NC(=O)NC2CCN(c3ccc(F)c(C)c3)C2=O)cc1 (centres undefined),873
12,COCC1(O)CCOC2(CCN(Cc3ccc(C)cc3)CC2)C1 (centres undefined),556
13,COC(=O)c1c(C)c(C(=O)C(C)N(CC2CCCCC2)C(=O)c2ccccc2Cl)c(C)n1C (centres undefined),1240
14,COc1ccc(NC(=O)c2cc(C(C)C)n(C3CCS(=O)(=O)C3)n2)cc1Cl (centres undefined),931
15,O=C(COc1ccc(F)c(F)c1)NCC1CCOCC1,719
16,CCCN1CCN(C(=O)CN2C(=O)CCCc3cc(S(=O)(=O)N4CCOCC4)ccc32)CC1,590
17,CCOc1nc2ccccc2nc1N1CCCC(C(=O)NC2CCCCC2)C1 (centres undefined),1170
18,Cn1c(C2CCN(C(=O)Nc3cccc(C(F)(F)F)c3)CC2)cc(=O)n2nccc12,717
19,CCn1cc(C(=O)NCc2ccc3c(c2)OCO3)c2cccnc21,755

# Further lines, results first:
row,RP-LC retention time [s],SMILES
1,894,CCCn1c(-c2cccc(C(=O)NCc3cccc(Br)c3)c2)nc2cccnc21
2,1230,Cc1ccc(-c2noc(Cc3nnc(-c4ccc(C)c(C)c4)o3)n2)cc1C
3,949,Clc1cc(-c2nc(-c3cccc(-c4ccn[nH]4)c3)no2)ccn1
4,737,O=C(O)c1ccc(Nc2c(-c3ccc(Cl)cc3)nc3cnccn23)cc1
5,882,COc1cc(OC)cc(C(=O)Nc2ccc3sccc3c2)c1
6,1080,CN1C(=O)C(C)(C)N(Cc2ccccc2)c2ccccc21
7,753,Cc1cc(=O)n(CC(C)O)c(-c2ccccc2)n1 (centres undefined)
8,836,Cc1nnc(-c2cc(C)n(CC(=O)Nc3ccc(Br)cc3)c2C)o1
9,849,O=C(c1ccco1)N1CCN=C1SCc1cccc(C(F)(F)F)c1
10,683,O=C(O)c1ccc(-c2nnc3ccc(NC(=O)C4CCC4)cn23)cc1
11,842,Cc1nc2nc(-c3ccccc3)nn2c(C)c1CC(=O)N(C)Cc1ccccc1
12,746,O=C(Nc1ccc(Cl)c(Cl)c1)N1CC(c2nc(-c3cnccn3)no2)C1
13,612,CCOc1ccccc1NC(=O)CN1CCN(c2nccn2-c2ccc(C)cc2)CC1
14,1170,CCc1ccc(S(=O)(=O)c2cnc(N3CCc4ccccc4C3)nc2N)cc1
15,790,Cc1cc(C2CCCN2C(=O)Cc2cccc(F)c2)no1 (centres undefined)
16,758,COc1cccc(C(=O)NC(NC(=O)c2cccc(OC)c2)c2ccc3c(c2)OCO3)c1
17,576,CCOC(=O)c1c(CN(C)C)n(-c2ccccc2)c2cc(-c3cccnc3)c(O)cc12
18,1220,Cc1ccc(S(=O)(=O)Nc2nc3ccccc3nc2Nc2ccc3nsnc3c2)cc1
19,808,O=C(NCc1ccco1)c1ccc2c(c1)nnn2Cc1ccc(F)cc1
20,1020,O=C(NCc1ccccc1)N1CCN(c2nc3cccnc3n(Cc3ccccc3)c2=O)CC1
21,1120,COc1ccc(NS(=O)(=O)c2cc(-c3cc(C(F)(F)F)on3)sc2C)cc1
22,592,COc1cn2c(cc1=O)C(=O)N(CCNC(=O)C1c3ccccc3Oc3ccccc31)CC2
23,780,O=C(NCC1CCCO1)c1cnn2c(-c3ccc4c(c3)OCO4)ccnc12 (centres undefined)
24,742,COc1ccc(CNC(=O)Cn2c(=O)c3cc(C4CC4)nn3c3ncccc32)cc1
25,610,Cc1ccc(NC(=O)Cc2cn3cc(F)ccc3n2)c(C)c1
26,873,CCOc1cccc(CNc2c(C(=O)OC)c(=O)[nH]c3c(Cl)cccc23)c1

row,RP-LC retention time [s],SMILES
1,706,COc1ccc(C(=O)NC2CCN(c3cc(-c4ccc(OC)cc4)[nH]n3)C2)cc1 (centres undefined)
2,604,Cc1nn(CC(=O)NCCCN(C)C)c(=O)c2nc(-c3ccccc3)sc12
3,734,Clc1ccc(-c2ccc(CNc3ncn[nH]3)o2)c(Cl)c1
4,853,CC(C)(C)c1ccc(C(=O)Nc2ccc3c(c2)C(=O)NC3=O)cc1
5,931,Cc1ccc(S(=O)(=O)CCc2noc(-c3ccc4c(c3)OCO4)n2)cc1
6,929,COc1cccc(Nc2c(-c3cccc(O)c3)nc3cnccn23)c1
7,961,CCOc1ccccc1NC(=O)c1cnc2c(c1)c(=O)n(C)c(=O)n2-c1ccccc1
8,1300,Cc1cc(C(=O)Nc2ccccc2F)nc2cc(-c3cccs3)nn12
9,743,Cc1ccn2cc(-c3ccc(NS(=O)(=O)c4ccc(Cl)c(Cl)c4)cc3)nc2n1
10,741,CNC(=O)c1cc2cc(Cl)ccc2[nH]1
11,1080,CCc1nc2cc(-c3noc(Cc4cc(OC)cc(OC)c4)n3)ccc2o1
12,846,Cc1cccc(N2CCN(CC(O)COc3ccc(Cl)cc3)CC2)c1 (centres undefined)
13,864,Cc1cc(S(=O)(=O)N2CC[C@H](n3c(=O)n(C)c4cccnc43)C2)ccc1F
14,934,O=C(Cc1cccs1)N1CCN(c2ccc(-c3noc(C4CC4)n3)cc2)CC1
15,541,Cc1nc(-c2ccncc2)nc2c1CCC(=O)N2CCc1ccccn1
16,914,CCn1c(=O)oc2cc(-c3noc(-c4n[nH]c5c4CCCC5)n3)ccc21
17,962,O=C(NCCC1=CCCCC1)c1nc(Nc2ccc(F)cc2)c2ccccc2n1
18,690,O=C(O)c1cn(Cc2ccccn2)nc1S(=O)(=O)N1CCc2ccccc2C1
19,1200,CCc1cc(C(=O)Nc2ccc(C(=O)OC)cc2)nc2cc(-c3ccco3)nn12
20,1060,O=c1c2cc(-c3ccc(F)cc3)nn2ccn1Cc1nc(-c2cccc(F)c2)no1
21,1260,CCc1ccc(NS(=O)(=O)c2cc(-c3nc(C(C)C)cs3)cs2)cc1
22,1200,CCOC(=O)c1cc(C2CC2)nc2c1c(=O)n(Cc1ccc(F)cc1)c(=O)n2C
23,843,O=C(NCCc1cccs1)c1cc2n(n1)CCCN(Cc1cccc(F)c1)C2=O
24,1180,Cc1ccc(-c2nc(-c3ccc4c(c3)oc(=O)n4C)no2)cc1C
25,966,CCn1ccc(C(=O)N2CCc3c(-c4ccc(OC)cc4)cccc3[C@H]2C)n1
